Assay [1] has as its system AML cell line MV4-11. The assay is described as follows: Anticancer activity: Alamar Blue 3-day proliferation assay. In kind it is cell-based. Conditions: Homo sapiens, MV4-11 cells, 72 h incubation, read-out: MV4-11 EC50_μM. The method, then: Anticancer Activity: Alamar Blue Assay
The impact of the compounds on cancer cell proliferation was determined using the AML cell line MV4-11 (ATCC) in a 3-day proliferation assay. MV4-11 cells were maintained in RPMI supplemented with 10% FBS at 37° C., 5% CO2. For compound testing, MV4-11 cells were plated in a 96-well black bottom plate at a density of 15,000 cells/well in 100 μL culture media and incubated at 37° C. overnight. Compound dilution series were prepared in DMSO via a 3-fold serial dilution from […]. The DMSO dilution series were then diluted with media, with the final compound concentrations added to the wells ranging from […]. […] The fluorescent readings from the Alamar Blue assay were normalized to the DMSO treated cells and analyzed using the GraphPad Prism software with sigmoidal curve fitting to obtain EC50.
In general terms: Resazurin is reduced to fluorescent resorufin, in cell work by metabolically active cells.

Assay [2] addresses BRD4-BD1 (Homo sapiens (Human), UniProt O60885). The assay is described as follows: BRD4 AlphaLISA (Perkin Elmer). It is filed as binding. Conditions: 5 nM BRD4-BD1, 12 nM biotinylated substrate, read-out: BRD4_BD1 IC50_μM. The method, then: BRD4 AlphaLISA (Perkin Elmer)
Compounds were diluted by step-down dilution method (final concentration of DMSO was 1%) and added to the wells of a 384 well opti plate at desired concentrations. 5 nM BDR4-BD1 enzyme (produced in-house) and 12 nM of biotinylated substrate were added to the wells, covered and incubated at room temperature (RT) for 1 h. At the end of 1 h 250 ng of GSH acceptor beads were added to the well and incubated for 1 h at RT; then 500 ng of streptavidin donor beads were added and incubated again for 1 h at RT. Plates were read in a Pherastar reader at 680 nm excitation and 570 nm emission. As detailed above, compounds were tested for both BRD4 enzyme inhibitory activities and IC50 were determined.
(Alpha assays give light when donor and acceptor beads are brought close together.)

Consider `CCOC(=O)CC1N=C(c2ccc(Cl)cc2)c2cc(OC)ccc2-c2cn(C)c(=O)cc21` (racemic) [Compound 14, ±-Ethyl-2-(7-(4-chlorophenyl)-9-methoxy-2-methyl-3-oxo-3,5-dihydro-2H-benzo[c]pyrido[3,4-e]azepin-5-yl)acetate], for which the EC50 in assay [1] was 2 nM.

Consider `CCOC(=O)CC1OC(C2CCCCC2)c2cc(OC)ccc2-c2cn(C)c(=O)cc21` (racemic) [Compound 2, ±Ethyl-2-(7-cyclohexyl-9-methoxy-2-methyl-3-oxo-2,3,5,7-tetrahydrobenzo[5,6]oxepino[4,3-c]pyridin-5-yl)acetate], for which the EC50 in assay [1] turned out to be 1 nM. Moreover, in assay [2], the IC50 amounted to 10 nM.

For `CCNC(=O)CC1N=C(C(F)(F)F)c2cc(OC)ccc2-c2cn(C)c(=O)cc21` (racemic) [Compound 32, ±2-(9-methoxy-2-methyl-3-oxo-7-(trifluoromethyl)-3,5-dihydro-2H-benzo[c]pyrido[3,4-e]azepin-5-yl)-N-ethylacetamide], the EC50 in assay [1] was found to be 108 nM. Besides, the IC50 in assay [2] was 49 nM.

Consider `CCNC(=O)CC1N=C(c2ccc(Cl)cc2)c2cc(F)ccc2-c2cn(C)c(=O)cc21` (racemic) [Compound 37, ±2-(7-(4-chlorophenyl)-9-fluoro-2-methyl-3-oxo-3,5-dihydro-2H-benzo[c]pyrido[3,4-e]azepin-5-yl)-N-ethylacetamide], for which the EC50 in assay [1] came out at 28 nM. Besides, the IC50 in assay [2] is 4 nM.

For `CCNC(=O)CC1N=C(c2ccc(Cl)cc2C)c2cc(OC)ccc2-c2cn(C)c(=O)cc21` (racemic) [Compound 39, ±2-(7-(4-chloro,2-methylphenyl)-9-methoxy-2-methyl-3-oxo-3,5-dihydro-2H-benzo[c]pyrido[3,4-e]azepin-5-yl)-N-ethylacetamide], the EC50 in assay [1] was 8 nM. Further, the IC50 in assay [2] stood at 4 nM.

Regarding `CCOC(=O)CC1N=C(C)c2cc(OC)ccc2-c2cn(C)c(=O)cc21` (racemic) [Compound 19, ±Ethyl-2-(9-methoxy-2,7-dimethyl-3-oxo-3,5-dihydro-2H-benzo[c]pyrido[3,4-e]azepin-5-yl)acetate], the IC50 in assay [2] was found to be 176 nM.

`CCOC(=O)CC1OC(c2ccc(Cl)cc2)c2cc(OC)ccc2-c2cn(C)c(=O)cc21` (racemic) [Compound 1, ±Ethyl 2-(-7-(4-chlorophenyl)-9-methoxy-2-methyl-3-oxo-2,3,5,7-tetrahydrobenzo[5,6]oxepino[4,3-c]pyridin-5-yl)acetate]: in assay [2], the IC50 stood at 24 nM.

`CCNC(=O)CC1N=C(C2CCCCC2)c2cc(OC)ccc2-c2cn(C)c(=O)cc21` (racemic) [Compound 26, ±2-(7-cyclohexyl-9-methoxy-2-methyl-3-oxo-3,5-dihydro-2H-benzo[c]pyrido[3,4-e]azepin-5-yl)-N-ethylacetamide]: the EC50 in assay [1] was 8 nM. Besides, the IC50 in assay [2] came out at 2 nM.

`CCNC(=O)CC1N=C(c2c(F)cccc2F)c2cc(OC)ccc2-c2cn(C)c(=O)cc21` (racemic) [Compound 38, ±2-(7-(2,6-difluorophenyl)-9-methoxy-2-methyl-3-oxo-3,5-dihydro-2H-benzo[c]pyrido[3,4-e]azepin-5-yl)-N-ethylacetamide]: in assay [1], the EC50 is 13 nM. In assay [2], the IC50 was < 0.5 nM.

`CCOC(=O)CC1N=C(C(F)(F)F)c2cc(OC)ccc2-c2cn(C)c(=O)cc21` (racemic) [Compound 18, ±Ethyl-2-(9-methoxy-2-methyl-3-oxo-7-(trifluoromethyl)-3,5-dihydro-2H-benzo[c]pyrido[3,4-e]azepin-5-yl)acetate]: the IC50 in assay [2] is 122 nM.

For `CCNC(=O)CC1N=C(c2ccccn2)c2cc(OC)ccc2-c2cn(C)c(=O)cc21` (racemic) [Compound 27, ±2-(9-methoxy-2-methyl-3-oxo-7-(pyridin-2-yl)-3,5-dihydro-2H-benzo[c]pyrido[3,4-e]azepin-5-yl)-N-ethylacetamide], in assay [1], the EC50 was 112 nM. For the same compound, the IC50 in assay [2] was 4.4 nM.

Consider `CCNC(=O)CC1N=C(CC2CC2)c2cc(OC)ccc2-c2cn(C)c(=O)cc21` (racemic) [Compound 30, ±2-(7-(cyclopropylmethyl)-9-methoxy-2-methyl-3-oxo-3,5-dihydro-2H-benzo[c]pyrido[3,4-e]azepin-5-yl)-N-ethylacetamide], for which the EC50 in assay [1] turned out to be 118 nM. For the same compound, the IC50 in assay [2] worked out at 10 nM.

`CCNC(=O)CC1OC(c2ccc(C)cn2)c2cc(OC)ccc2-c2cn(C)c(=O)cc21` (racemic) [Compound 11, ±2-(9-methoxy-2-methyl-7-(5-methylpyridin-2-yl)-3-oxo-2,3,5,7-tetrahydrobenzo[5,6]oxepino[4,3-c]pyridin-5-yl)-N-ethylacetamide]: in assay [1], the EC50 was 175 nM. Also, the IC50 in assay [2] is 61 nM.

Regarding `CCNC(=O)CC1N=C(c2ccc(Cl)cc2)c2cc(C(F)(F)F)ccc2-c2cn(C)c(=O)cc21` (racemic) [Compound 35, ±2-(7-(4-chlorophenyl)-2-methyl-3-oxo-9-(trifluoromethyl)-3,5-dihydro-2H-benzo[c]pyrido[3,4-e]azepin-5-yl)-N-ethylacetamide], the EC50 in assay [1] was found to be 40 nM. Further, the IC50 in assay [2] came to 77 nM.

Consider `CCOC(=O)CC1N=C(c2c(F)cccc2F)c2cc(OC)ccc2-c2cn(C)c(=O)cc21` (racemic) [Compound 23, ±Ethyl-2-(7-(2,6-difluorophenyl)-9-methoxy-2-methyl-3-oxo-3,5-dihydro-2H-benzo[c]pyrido[3,4-e]azepin-5-yl)acetate], for which the EC50 in assay [1] was 5 nM. Further, the IC50 in assay [2] came to 1 nM.

With `CCNC(=O)CC1N=C(c2ccc(Cl)cc2)c2cc(OC)ccc2-c2cn(C)c(=O)cc21` (racemic) [Compound 25, ±2-(7-(4-chlorophenyl)-9-methoxy-2-methyl-3-oxo-3,5dihydro-2H-benzo[c]pyrido[3,4-e]azepin-5-yl)-N-ethylacetamide], the EC50 in assay [1] stood at 3 nM.

On to `COc1ccc2c(c1)C(c1ccc(Cl)cc1)=NC(CC(N)=O)c1cc(=O)n(C)cc1-2` (racemic) [Compound 28, ±2-(7-(4-chlorophenyl)-9-methoxy-2-methyl-3-oxo-3,5-dihydro-2H-benzo[c]pyrido[3,4-e]azepin-5-yl)acetamide], for which the EC50 in assay [1] came to 326 nM. For the same compound, the IC50 in assay [2] turned out to be 36 nM.

For `CCNC(=O)C[C@H]1O[C@H](c2ccc(Cl)cc2)c2cc(OC)ccc2-c2cn(C)c(=O)cc21` [Compound 8F, 2-((5R,7R)-7-(4-chlorophenyl)-9-methoxy-2-methyl-3-oxo-2,3,5,7-tetrahydrobenzo[5,6]oxepino[4,3-c]pyridin-5-yl)-N-ethylacetamide], in assay [1], the EC50 turned out to be 24 nM. In assay [2], the IC50 was 12 nM.

The values above are taken from patent US10689390B2, “Tricyclic fused derivatives of 1-(cyclo)alkyl pyridin-2-one useful for the treatment of cancer” (JUBILANT BIOSYS LIMITED, priority 2015, dated 2020).
